Common to all, as to type: biochemical
In one assay the target is T1, TrCel7A (Trichoderma reesei, UniProt P62694).
T1 construct: TrCel7A was purified from the culture filtrate of Tr QM 9414 as described previously; made in house; host or cells: Trichoderma reesei QM 9414 culture filtrate (native producer)
As to the kind of experiment: Cellobiose inhibition of MUL hydrolysis by TrCel7A. The following applies: Ki for cellobiose, MUL substrate (5 μM). From the text:
(§1) The cellobiose inhibition of GH7 CBHs is most often studied on low-Mw model substrates. However, it has been shown that the inhibition of CBHs acting on low-Mw substrates appears to be much stronger than that on cellulose substrates. The Ki values for cellobiose inhibition of GH7 CBHs measured on low-Mw substrates are in the micromolar range [44, 51, 52], whereas those measured on cellulose are in the low- to high-millimolar range [28, 31, 32]. […] Unfortunately, the inhibition of this enzyme on cellulose has not been studied. We also studied the cellobiose inhibition of GH7 CBHs acting on MUL. The initial rates of MUL hydrolysis measured in the presence and absence of added cellobiose were first analyzed according to Equation 1, and the IC50 values were found using Equation 2. […] The inhibition of MUL hydrolysis is attributable to the binding of cellobiose to the product sites (+1/+2) of TrCel7A [52]. […]
(§2) For the inhibition of enzyme acting on the low-Mw substrate, the initial rates of the hydrolysis of MUL in the presence and absence of added cellobiose were followed. […] Reactions were stopped by the addition of NH3 (final concentration 0.1 M), and the released 4-methylumbelliferone was quantified by fluorescence using excitation and emission wavelengths of 360 nm and 450 nm, respectively.

The next assay concerns the target TaCel7A (Thermoascus aurantiacus, UniProt A7WNU2). In words: Cellobiose inhibition of MUL hydrolysis by TaCel7A. Particulars: MUL substrate (5 μM).
Source text: as §1, §2

The target in the next assay is T2, TrCel5A (Trichoderma reesei, UniProt P07982).
T2 construct: TrCel7B, TrCel5A, and TrCel12A were purified from the culture filtrate of Tr QM 9414; made in house; host or cells: Trichoderma reesei QM 9414 culture filtrate (native producer)
As to the kind of experiment: Cellobiose inhibition of hydrolysis of 14C-amorphous cellulose by TrCel5A. Particulars: TrCel5A (5.0 nM), 35°C, not accountable by Equation 5. From the text:
EGs are a diverse group of enzymes present in all efficient cellulase systems. Their best recognized function is their synergism with CBHs. Depending on the conditions, the degree of synergistic effect may be more than 10-fold. Therefore, the inhibition of the EG component may result in a drastic decrease in the rate of the synergistic hydrolysis of cellulose. The main soluble product of the EG-catalyzed cellulose hydrolysis is cellobiose, but some glucose and higher-order oligosaccharides are also produced. Here, we studied the cellobiose inhibition of the EGs TrCel7B, TrCel5A and TrCel12A with ^14C-amorphous cellulose substrate. The enzyme concentrations and hydrolysis times were adjusted so that the linear region of the time course was studied. The time courses for the hydrolysis of ^14C-amorphous cellulose by TrCel7B in the presence and absence of added cellobiose are shown in Figure 9A. For the results with TrCel5A and TrCel12A, see Additional file 1: Figure S5. […] This figure is reasonably well in line with that measured for TrCel7B on amorphous cellulose using isothermal titration calorimetry. […]
EGs were assessed on ^14C-amorphous cellulose. ^14C-amorphous cellulose (0.5 g l^-1) was incubated (with shaking at 700 rpm) with EG in 50 mM sodium acetate buffer, pH 5.0, containing BSA (0.1 g l^-1) in the presence and absence of added cellobiose. […]

TaCel7A, sequence (A7WNU2 entry or part of it): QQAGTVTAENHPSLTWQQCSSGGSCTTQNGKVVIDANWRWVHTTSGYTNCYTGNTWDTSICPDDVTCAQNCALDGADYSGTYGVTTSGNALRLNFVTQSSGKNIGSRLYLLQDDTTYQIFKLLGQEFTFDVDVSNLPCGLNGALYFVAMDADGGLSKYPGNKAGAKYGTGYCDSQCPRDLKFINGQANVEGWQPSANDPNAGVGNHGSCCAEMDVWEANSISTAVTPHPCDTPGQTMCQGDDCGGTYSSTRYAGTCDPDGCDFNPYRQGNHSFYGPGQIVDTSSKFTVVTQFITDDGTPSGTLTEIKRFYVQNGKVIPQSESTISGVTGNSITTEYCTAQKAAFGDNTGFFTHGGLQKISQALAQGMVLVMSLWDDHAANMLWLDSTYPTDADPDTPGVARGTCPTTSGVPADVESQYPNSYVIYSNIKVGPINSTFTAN
T1 sequence (P62694 18-513): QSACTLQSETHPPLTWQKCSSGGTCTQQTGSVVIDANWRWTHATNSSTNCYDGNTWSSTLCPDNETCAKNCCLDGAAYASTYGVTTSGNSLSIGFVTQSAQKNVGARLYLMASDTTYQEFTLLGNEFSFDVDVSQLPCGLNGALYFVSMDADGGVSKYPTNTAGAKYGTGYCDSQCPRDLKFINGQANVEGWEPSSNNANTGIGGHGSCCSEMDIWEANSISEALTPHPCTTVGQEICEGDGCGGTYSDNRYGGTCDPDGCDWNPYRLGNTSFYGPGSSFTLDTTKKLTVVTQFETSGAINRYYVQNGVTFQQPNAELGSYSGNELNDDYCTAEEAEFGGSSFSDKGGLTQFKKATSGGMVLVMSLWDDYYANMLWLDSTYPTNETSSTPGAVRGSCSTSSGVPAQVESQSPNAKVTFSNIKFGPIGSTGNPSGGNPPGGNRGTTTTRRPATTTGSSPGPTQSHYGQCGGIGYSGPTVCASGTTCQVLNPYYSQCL
T2 sequence (P07982 22-418): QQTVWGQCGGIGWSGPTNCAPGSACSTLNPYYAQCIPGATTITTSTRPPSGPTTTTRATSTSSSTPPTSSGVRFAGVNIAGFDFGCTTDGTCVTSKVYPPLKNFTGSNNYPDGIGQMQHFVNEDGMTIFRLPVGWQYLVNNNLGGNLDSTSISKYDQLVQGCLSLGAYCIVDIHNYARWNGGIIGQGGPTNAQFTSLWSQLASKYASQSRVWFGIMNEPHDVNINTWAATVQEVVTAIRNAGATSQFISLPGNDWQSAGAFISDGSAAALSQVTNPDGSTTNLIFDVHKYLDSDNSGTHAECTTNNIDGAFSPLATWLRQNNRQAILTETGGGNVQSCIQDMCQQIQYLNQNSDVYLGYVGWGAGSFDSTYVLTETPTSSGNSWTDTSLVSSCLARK

`O=C[C@H](O)[C@@H](O)[C@H](O[C@@H]1O[C@H](CO)[C@@H](O)[C@H](O)[C@H]1O)[C@H](O)CO` [cellobiose, Cellobiose]: the Ki – broadly, the equilibrium dissociation constant of an inhibitor or competing ligand from its target – at TrCel7A (35°C) turned out to be 40 µM; at TrCel7A (50°C), 124 µM; at TaCel7A (35°C), 176 µM; on TaCel7A (50°C) it was 355 µM. For the same compound, the “IC50 (approximate, by visual inspection of Figure 9B)” value on TrCel5A was “few hundred millimolar range”.

The values above are taken from article PMC3726336, “Product inhibition of cellulases studied with ^14C-labeled cellulose substrates” (Biotechnology for Biofuels, 2013).
